Results on three molecules are retold here after patent publication US12558405B2, “Pharmaceutical composition using endogenous cells for preventing or treating musculoskeletal disorders” (SEOUL NATIONAL UNIVERSITY R&DB FOUNDATION, priority 2019, dated 2026).

The test system of experiment [1] is bone marrow stem cells. As to the kind of experiment: Chemotaxis of stem cells, agarose chemotaxis assay. The class given is cell-based. The conditions noted are these: 72 hours; control group (antibiotic) = 100.00; composition 50% of medium volume, positive controls 100 ng/mL. As to the method:
First, after preparing 0.8% agarose gel on a 6-well plate, three holes were perforated in each well with intervals of 5 mm using a 5-mm skin biopsy punch. 1×10^4 bone marrow stem cells were dispensed into LG DMEM containing 10% FBS and an antibiotic at the center. After waiting for 5 hours until the cells were attached, the medium was replaced with LG DMEM containing the antibiotic only. […] In addition, G-CSF 100 ng/mL, SDF-1α 100 ng/mL and IL-1β 100 ng/mL were treated for comparison as positive control groups of chemotaxis. 72 hours later, the cells were fixed with 4% paraformaldehyde, stained with DAPI and observed with a fluorescence microscope. The cells that migrated to the left and right sides were imaged with the fluorescence microscope. The number of cells that migrated 100 μm or longer from the end of each hole was counted. All experiments were repeated 3 times.

Experiment [2] concerns bone marrow stem cells. Briefly: Chemotaxis of stem cells, Boyden chamber assay. The class given is cell-based. To be noted: 24 hours; control group (antibiotic) = 100.00; composition 10% of medium volume, positive controls 100 ng/mL. How it is done: 1×10^4 bone marrow stem cells were seeded onto an upper insert of a transwell and cultured for 24 hours in LG DMEM containing an antibiotic (HyClone, Thermo Fisher Scientific Inc., Waltham, MA, USA). […] LG DMEM not containing FBS was used as a negative control group, and G-CSF 100 ng/mL, SDF-1α 100 ng/mL and IL-1β 100 ng/mL were compared as positive control groups of chemotaxis. In order to count the cells that migrated from the insert to the bottom, the cells remaining on the insert was removed 24 hours later and only the cells at the bottom were left. After fixing with 4% paraformaldehyde and staining with crystal violet, the cells were observed under a microscope. For quantification of the cells that migrated to the bottom, OD540 was measured after dissolving the crystal violet with acetic acid. All experiments were repeated 3 times.

As to “SDF-1α: positive control of chemotaxis, 100 ng/mL”, the figures for the “Number of migrated cells” value in experiment [1] and in experiment [2] were 466.68 ± 348.04 and 365.28 ± 280.55, respectively.

Regarding “IL-1β: positive control of chemotaxis, 100 ng/mL”, the “Number of migrated cells” value is 314.13 ± 220.72 in experiment [1] and 358.85 ± 271.58 in experiment [2].

B1: G-CSF: positive control of chemotaxis, 100 ng/mL (protein, UniProt P09919 31-207, looked up)
Granulocyte …: TPLGPASSLPQSFLLKCLEQVRKIQGDGAALQEKLVSECATYKLCHPEELVLLGHSLGIPWAPLSSCPSQALQLAGCLSQLHSGLFLYQGLLQALEGISPELGPTLDTLQLDVADFATTIWQQMEELGMAPALQPTQGAMPAFASAFQRRAGGVLVASHLQSFLEVSYRVLRHLAQP
Take B1: the entries for the “Number of migrated cells” value in experiment [1] and in experiment [2] were 393.76 ± 280.52 and 415.01 ± 338.54, respectively.
